This passage reports GI50 and TGI results from PubChem BioAssay (NCI).

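Five compound concentrations were applied to cells in 96-well plates for 48 hours; endpoints were derived by simple linear interpolation of the resulting dose-response curve. GI50 is the concentration that inhibits growth by half. Definition used: TGI = concentration required for complete inhibition of growth.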

Experiment in all cases: NCI-60 cell line screen, 48 h
The test system of test [1] is M14 melanoma.
Test [2] concerns HCT-116 colon.
Test [3] deals with SF-295 CNS.
Test [4] concerns HL-60(TB) leukemia.
For test [5], the system named is BT-549 breast.
The subject of test [6] is UACC-257 melanoma.
Test [7] relates to A498 renal.
The test system of test [8] is HCT-15 colon.
The test system of test [9] is SK-OV-3 ovarian.
The test system of test [10] is SK-MEL-28 melanoma.

As for `Fc1ccc(-c2nc3n(c2-c2ccncc2)CCS3)cc1`, the GI50 in [1], in test [2], in test [3], in test [4], in test [5] and in test [6] was over 25 µM in each case. The GI50 in test [7], in [8], in [9] and in test [10] was over 25 µM in each case. The TGI in test [1], in test [2], in test [3], in test [4], in [5] and in test [6] was over 25 µM throughout. For the same compound, the TGI in test [7], in test [8], in test [9] and in test [10] was over 25 µM each time.

`CC1Oc2cc3c(-c4c(O)cc(O)c5c(O)c6c(cc45)OC(C)C(C)C6=O)c(O)cc(O)c3c(O)c2C(=O)C1C` (stereo not given): the TGI was found to be 1.12 µM in test [1]; 0.289 µM in test [2]; 0.49 µM in test [3]; 0.65 µM in test [4]; 0.775 µM in [5]; 1.68 µM in test [6]. The TGI in test [7] was 0.784 µM; in [8], 1.15 µM; in test [9], 1.56 µM; in test [10], 1.96 µM.

Consider `CCCN1C(=O)/C(=c2\sc3n(c2=O)C2C(NN=3)N(CC)C(=O)N2CC)c2ccccc21` (stereo not given), for which the GI50 in test [1] is 0.413 µM; in test [2], 0.404 µM; in test [3], 0.409 µM; in test [4], 0.3 µM; in test [5], 1.66 µM; in test [6], 1.22 µM. The GI50 in test [7] is 0.188 µM; in [8], 0.416 µM; in test [9], 0.737 µM; in test [10] it was 1.18 µM. The TGI in [1] was 12.4 µM; in test [2], 12.4 µM; in test [3], 10.7 µM; in test [4] it was 1.03 µM; in test [5], 13.2 µM; in [6] it was 14 µM. The TGI in test [7] is 0.77 µM; in [8], over 52.4 µM; in test [9], 14.9 µM; in [10] it was 29.1 µM.

As for `OCC1OC(n2ccc3c2ncn2ncnc32)C(O)C1O` (stereo not given), the GI50 in [1] was 5.65 µM; in test [2], 1.38 µM; in test [3], 1.13 µM; in [4] it was 0.854 µM; in [5], 1.23 µM; in [6], over 70.4 µM. Moreover, the GI50 was 0.205 µM in test [7], 0.47 µM in test [8], 2.08 µM in test [9] and over 72.9 µM in test [10]. Besides, the TGI in test [1] was over 100 µM; in test [2], over 100 µM; in test [3], over 59.8 µM; in [4], 5.5 µM; in [5], 25.2 µM; in [6], over 100 µM. The TGI in [7] was 2.37 µM; in test [8] it was over 100 µM; in [9], over 49.2 µM; in [10] it was over 100 µM.

On to `C[C@]12CC[C@H]3[C@@H](CCC4=CC(=O)CC[C@@H]43)[C@@H]1CC[C@@H]2OC(=O)N(CCCl)N=O`, for which the GI50 is 4.27 µM in test [1]; 3.92 µM in [2]; 0.121 µM in [3]; 0.28 µM in [4]; 11.2 µM in [5]; 10.7 µM in test [6]. Moreover, the GI50 was 1.9 µM in test [7], 8.45 µM in [8], 2.77 µM in test [9] and 11.6 µM in test [10]. The TGI in test [1] is 21.4 µM; in [2] it was 19.2 µM; in [3] it was over 44.6 µM; in [4] it was 2.15 µM; in [5], 26 µM; in [6], 24.8 µM. For the same compound, the TGI in test [7] turned out to be 5.51 µM; in test [8] it was 31.3 µM; in test [9], 30 µM; in test [10], 26.1 µM.

On to `N#CC(C#N)=Cc1ccc(-c2ccc(-c3nc4ccccc4s3)cc2)o1`, for which the GI50 in test [1] was over 100 µM; in [2], 5.11 µM; in test [3] it was 20.7 µM; in test [4], 37.4 µM; in [5] it was 32.9 µM; in [6], 92.9 µM. Also, the GI50 in test [7] is 0.346 µM; in test [8], 11.9 µM; in test [9] it was 10 µM; in [10], 27.5 µM. Also, the TGI in test [1] was over 100 µM; in test [2], 24.9 µM; in [3], 46 µM; in [4] it was over 100 µM; in test [5] it was 96.1 µM; in [6], over 100 µM. Further, the TGI is 0.985 µM in [7], 50.4 µM in test [8], 35.4 µM in test [9] and over 100 µM in [10].

`Cn1c(=O)c2[nH]c(/N=N/N3CCN(CCO)CC3)nc2n(C)c1=O`: the TGI in test [1], in test [2], in test [3], in test [4], in test [5] and in test [6] was over 100 µM in each case. Besides, the TGI in test [7], in test [8], in test [9] and in [10] was over 100 µM in each case.

Consider `C=C(C)[C@@H]1CC[C@]2(C(=O)NCCCN)CC[C@]3(C)[C@H](CC[C@@H]4[C@@]5(C)CC[C@H](O)C(C)(C)[C@@H]5CC[C@]43C)[C@@H]12`, for which the GI50 in test [1] is 24.7 µM; in test [2], 13.9 µM; in test [3], 22.6 µM; in test [4], 16.5 µM; in test [5], 23.8 µM; in test [6], 20.6 µM. The GI50 was 22.9 µM in test [7], 21.7 µM in test [8], 17.7 µM in test [9] and 22.1 µM in [10]. Also, the TGI in test [1] was over 100 µM; in test [2] it was 62.4 µM; in test [3] it was 67.3 µM; in [4], 50.7 µM; in test [5], 75.9 µM; in [6], 55.3 µM. In addition, the TGI is 49.2 µM in test [7], over 100 µM in test [8], 49.4 µM in test [9] and 57.8 µM in [10].
